Patent publication US20100166662A1, “MAGNETIC RESONANCE IMAGING METHOD USING VANADYL-BASED CONTRAST AGENTS” (The University of Chicago, priority 2006, published 2010)

What was measured:
3T3-L1 adipocytes = test: Uptake of 2-deoxy-D-[1-14C]glucose by 3T3-L1 adipocytes; format: cell-based
Experimental: The effect of vanadyl compounds on uptake of 2-deoxy-D-[1-^14C]glucose by 3T3-L1 adipocytes was measured using methods described in Makinen, M. W., et al., “Structural Origins of the Insulin-Mimetic Activity of Bis(acetylacetonato)oxovanadium(IV),” J. Biol. Chem. 277 (2002) pp. 12215-12220, which is incorporated herein by reference. Serum-starved, differentiated […] adipocytes were used in the metabolic assays. Cells were washed twice with phosphate-buffered isotonic saline at 37° C. and serum-starved for 2.5 hours in Krebs-Ringer buffer lacking bovine serum albumin or serum. The medium was removed, and cells were incubated for 30 minutes in buffer with different concentrations of VO^2+-based contrast agents with or without serum albumin (1 mM) prior to measuring glucose uptake rates. Glucose transport rates were measured by the addition of 20 μM 2-deoxy-D-[1-^14C] glucose.

[1] = Solubility in aqueous solutions at physiological pH; format: physicochemical
Experimental: Bis(acetylamido)oxovanadium(IV) [VO(acac-NH2)2]. VO(acac-NH2)2 was synthesized according to the procedure described by Crans et al., “Bis(acetylamido)oxovanadium(IV) Complexes: Solid State and Solution Studies,” J. Chem. Soc. Dalton Trans. (2001) pp. 3337-3345. One equivalent of vanadyl sulfate was dissolved in water followed by the addition of 3-equivalents of acetoacetamide under constant stirring. A solution of 10% sodium bicarbonate was then added dropwise to raise the pH from 1.5 to 3.6 in order to form a suspension. A bluish precipitate was obtained after allowing the solution to stand for one day at 4° C. The precipitate was filtered off, washed with a small amount of chloroform, and dried under vacuum.
Bis(acetylacetanato-bisNH2)oxovanadium(IV) [VO(acac-(NH2)2)2]. VO(acac-(NH2)2)2 is synthesized as follows. One equivalent of vanadyl sulfate is dissolved in water followed by the addition of 3 equivalents of malonamide under constant stirring. A solution of 10% sodium bicarbonate is then added dropwise to raise the pH in order to form a suspension. A bluish precipitate is obtained after standing the solution for one day at 4° C. The precipitate is filtered off, washed with a small amount of chloroform, and dried under vacuum.

p-AKT = test: Cell signaling study, Western blot of p-AKT in Caco-2 and HCA-7 cells; format: cell-based, human; conditions: 5 min; for level of p-AKT compared to controls: Caco-2 and HCA-7 cells
Experimental: (§1) HCA-7 and Caco-2 cells derived from human colonic adenocarcinomas obtained from the American Type Culture Collection, Manassas, Va. were cultured at 37° C. in a humidified atmosphere of 5% CO2-95% air in 6-well plates (250,000 cells/well/2 mL in 5% serum medium). When cells were ˜70-80% confluent, cells were transferred to serum-free media and kept overnight. A vanadyl compound was added to a well to a final concentration of 100, 250, or 500 μM and incubated for 5 minutes. In each 6-well plate, 2 wells were set as controls and 4 wells were set for one desired concentration of a vanadyl compounds. Cells were then homogenized in 2× Laemmli sodium dodecyl sulfate (SDS) buffer. Samples were boiled for 5 minutes at 100° C. and proteins quantified using the RC-DC protein assay (Bio-Rad). Western blotting was then carried out, briefly described as follows. SDS-treated samples (50 μg/lane) were separated by SDS-polyacrylamide gel electrophoresis (PAGE) on a 4-15% resolving gel. Pre-stained molecular weight markers were included in each gel. Gels were electroblotted to immobilon-P transfer membranes (Millipore Billerica, Mass.). Following blocking of non-specific antibody binding, the blots were exposed to rabbit polyclonal anti-pAKT (Cell Signaling Technology, Danvers, Mass.) or mouse monoclonal anti-pERK (Santa Cruz Biotechnology, Inc., Santa Cruz, Calif.) and developed with secondary antibody using standard methods. The blots were washed, and the p-AKT and p-ERK were detected in film and digitized for final quantification.
FIG. 3 illustrates two Western blots of p-AKT using Caco-2 (left panel) and HCA-7 cells (right panel) treated with VO(acac)2 in a concentration of 100, 250 or 500 μM (top, middle and bottom rows, respectively). Lane 1 is the control; lanes 2 and 3 are duplicates of cells exposed to VO(acac)2 a particular concentration of VO(acac)2. These blots were analyzed by […] on X-OMAT™ autoradiogram films using an enhanced chemiluminesence system.

p-ERK = test: Cell signaling study, Western blot of p-ERK in Caco-2 and HCA-7 cells; format: cell-based, human; conditions: 100, 250 or 500 μM, 5 min
Experimental: as §1, with “Following blocking of non-specific antibody binding, the blots were exposed to rabbit polyclonal anti-pAKT (Cell Signaling Technology, Danvers, Mass.) or mouse monoclonal anti-pERK (Santa Cruz Biotechnology, Inc., Santa Cruz, Calif.) and developed with secondary antibody using standard methods.” left out

[2] = T1 relaxivity of the contrast agent in buffer; format: physicochemical; conditions: 0.01 M HEPES buffer pH 7.4 with 0.15 M NaCl; 4.7 Tesla
Experimental: The T1 relaxation times of VO(acac)2 in 0.01 M HEPES buffer at pH 7.4 with 0.15 M NaCl were determined. With the determined T1 values at different concentrations of VO(acac)2, the relaxivity was determined using equation 1,
where T1m is the measured T1 for VO(acac)2, T1w is the T1 for water, C is the concentration of the contrast agent, and r1 is the relaxivity. The relaxivity for VO(acac)2 of 2.5±0.2 mM^−1s^−1 is slightly lower but close to that of known contrast agents of gadolinium complexes of 4.3±0.2 mM^−1s^−1 at 4.7 Tesla. This means that VO(acac)2 can produce significant, easily detectable changes in MR image intensity.

[3] = Toxicity study in tumor-bearing nude mice (blood parameters, i-STAT); format: in vivo; conditions: 1 mmol/kg via tail vein, monitored over three days, mice bearing AT6.1 tumor
Experimental: Toxicity studies were performed with tumor-bearing nude mice weighing about 25-30 grams (n=5). An AT6.1 prostate tumor was implanted subcutaneously in the hind limb of the mouse. 1 mmol/kg of VO(acac)2 was administered through a catheter placed in the tail vein. The VO(acac)2 was dissolved in dimethyl sulfoxide and the resulting solution was diluted with saline. The final concentration of DMSO was about 5% by volume. The solution was about 10 mM VO(acac)2.
The pH, pCO2, HCO3^−, TCO2, serum O2, Na^+, K^+, Ca^2+, glucose, blood urea nitrogen (BUN), Hematocrit (Hct) and hemoglobin (Hb) were monitored using an i-STAT analyzer (East Windsor, N.J.) by taking ˜30 μL blood samples over a period of three days.

AT6.1 prostate tumor = test: In vivo MRI and contrast media dynamics in rats bearing AT6.1 tumors; design: species or system Copenhagen rat; conditions: rat
Experimental: MRI studies were performed using a 4.7 Tesla Bruker scanner with multi-slice echo-planner spectroscopic imaging (EPSI). The scanning parameters were as follows: TR/TE of 800/80 msec; field of view 40 mm; array size of 256×256; slice thickness of 0.5 mm; and, an average of 1.
First, high-resolution reference images were acquired by conventional spin echo and gradient echo pulse sequences using multiple slices. These reference images provided anatomic reference information and were used to accurately measure tumor volume. Then multi-slice (usually 3 slices) echo-planner spectroscopic imaging (EPSI) with repetition time (TR) of 800 msec and echo time (TE) of 80 msec were acquired. Acquisition of MRI data using high-resolution EPSI pulse sequence may also be used. These sequence images were acquired with spatial resolution of 200 micron in-plane in ˜500 micron slices and spectral resolution of 2 Hz. These images were acquired at the same spatial resolution as conventional images but provided increased sensitivity to contrast media effects.
A Dunning AT6.1 prostate tumor was implanted subcutaneously in the hind limb of a Copenhagen rat. The tumor was monitored and imaging began when the tumor reached a size of 5-10 mm. The VO^2+-based contrast agent was dissolved in dimethyl sulfoxide and the resulting solution was diluted with saline. The final concentration of DMSO was about 5% by volume. The solution was about 10 mM VO^2+-based contrast agent.
After 6 to 8 pre-contrast MR images were obtained as a reference, 0.15 mmol/kg of VO(acac)2 was injected through a catheter placed in the tail vein of the rat over 5 minutes. During MR imaging, the rats were anesthetized using isofluorane mixed with air and oxygen flowing through a mask. Exhaust gases were eliminated through an F-Air canister attached to the mask set up. Temperature was monitored continuously by a rectal thermometer and controlled with a warm water blanket. Heart rate, respiration rate, and blood pressure were monitored using an optical detector system from SA Instruments (Stony Brook, N.Y.). To minimize motion artifacts, rats were wrapped in co-flex and taped to a Plexiglass board. The leg was secured through the coil in a plastic tube and taped to the cradle.
Post-contrast EPSI scans were acquired for about 4 hours. Each EPSI scan took about 3.5 minutes. Images were used in which the intensity was proportional to the peak height of the water resonance in each voxel. […]
0.15 mmol/kg of VO(acac)2 was injected through a catheter placed in the tail vein of the rat over 5 minutes. […] Temperature was monitored continuously by a rectal thermometer and controlled with a warm water blanket. Heart rate, respiration rate, and blood pressure were monitored using an optical detector system from SA Instruments (Stony Brook, N.Y.). […]

AT6.1 prostate tumors = test: Vanadyl concentration in tumor and muscle tissue by atomic absorption spectroscopy; format: in vivo, nude mice; conditions: at 5 hours after about 0.15 mmol/kg i.v., mice
Experimental: AT6.1 prostate tumors were implanted subcutaneously in the hind limbs of nude mice. The tumors were monitored and allowed to grow to about 6-8 mm over a period of about 2 weeks. The VO^2+-based contrast agent was dissolved in dimethyl sulfoxide and the resulting solution was diluted with saline. The final concentration of DMSO was about 5% by volume. The solution was about 10 mM VO^2+-based contrast agent. VO(acac)2 was added slowly to the tail vein of each mouse using a syringe infusion pump (Harvard Apparatus, South Natick, Mass.). A total of 100 μL of solution were added in 5 minutes (flow rate=20 μL/minute) for a total dosage of about 0.15 mmol/kg. All mice were kept in a cage and monitored after injection. The mice were then sacrificed at various times. Tissue samples of the tumors and muscles were removed after a mouse was sacrificed. The tissue samples were weighed and then digested by wet digestion using H2O2 and HNO3. Atomic absorption measurements were carried out using Perkin Elmer AAnalyst 300 with an HGA 800 furnace. Control sets (n=3) were free of contrast agent. Measurements were based on standard curves of known vanadyl concentration with a correlation coefficient of 0.99820.

[4] = 0.15 mmol/kg i.v. over 5 minutes, AT6.1 tumor

With `Cc1occc(=O)c1[O-].Cc1occc(=O)c1[O-].[O]=[V+2]` [VO(malto)2, Bis(maltolato)oxovanadium(IV)] the “dependence of increase in glucose uptake on compound:serum albumin ratio” value (3T3-L1 adipocytes; data not shown) was “no clear dependence”, the “enhancement of glucose uptake per equivalent of VO2+ compared with VO(acac)2 and VO(OPT)2” value (3T3-L1 adipocytes; data not shown) was “markedly less” and the “glucose uptake (effect in words)” value (3T3-L1 adipocytes; with or without 1 mM serum albumin, data not shown) was “facilitate glucose uptake”.

In the case of “Bis(acetylamido)oxovanadium(IV) [VO(acac-NH2)2]”, the “solubility in aqueous solutions” value [1] is reported as “completely soluble”.

For `O=S(=O)([O-])[O-].[O]=[V+2]` [VOSO4, vanadyl sulfate, reference compound], the “activation of p-AKT (in words)” value (p-AKT; 100, 250 or 500 μM) was “did not induce measurable activation” and the “activation of p-ERK (in words)” value (p-ERK) was “did not induce measurable activation”.

With “Bis(acetylacetonato)oxovanadium(IV) [VO(acac)2]” the “relaxivity r1” value [2] was 2.5 ± 0.2 mM⁻¹ s⁻¹, the uptake of glucose (3T3-L1 adipocytes; in the presence of equimolar concentrations of serum albumin, 30 min incubation) was “maximally enhanced” and the “level of p-AKT compared to controls” value (p-AKT; 100 μM) was 2 fold. For the same compound, the “level of p-AKT compared to controls” value (p-AKT; 250 μM) was 5 fold, the “level of p-AKT compared to controls” value (p-AKT; 500 μM) was 12 fold and the “blood pH, pCO2, HCO3−, TCO2, serum O2, Na+, K+, Ca2+, glucose, BUN, Hct, Hb” value [3] was “fell within the normal range”. The “MR signal enhancement in tumor regions, often as high as” value (AT6.1 prostate tumor; [4]) was ≤ 100%, the “MR signal enhancement in tumor regions, typical” value (AT6.1 prostate tumor; [4]) was “greater than 50%” and the “enhancement in muscle for a long time after injection” value (AT6.1 prostate tumor; 0.15 mmol/kg i.v.) was “relatively little enhancement in muscle”. The “T1 and T2* contrast” value (AT6.1 prostate tumor; 0.15 mmol/kg i.v., 4.7 Tesla) was “excellent T1 and T2* contrast” and the “vanadyl concentration in tumor tissue” value (AT6.1 prostate tumors) was “remained relatively high”.
